Experimental data: patent publication US20250186627A1, “RADIOLABELED COMPOUNDS TARGETING THE PROSTATE-SPECIFIC MEMBRANE ANTIGEN” (PROVINCIAL HEALTH SERVICES AUTHORITY, priority 2022, published 2025)
*1 amine or outer side, *2 acyl side, *3 side chain or, on linkers, in order; H or OH if unused. Where a SMILES comes first, the peptide text is derived from it. [ ]: non-standard residue; d: D form. The star is where a group is joined. ξ: configuration not given here. ξLys(Nα-CO-ξAad) = O=C(O)CCCC(NC(=O)NC(CCCCN*)C(=O)O)C(=O)O; Butanoyl(4-(4-NO2Ph)) = O=C(CCCc1ccc([N+](=O)[O-])cc1)*; DOTA = O=C(O)CN1CCN(CC(=O)O)CCN(CC(=O)*)CCN(CC(=O)O)CC1; ξAla(9-anthryl) = NC(Cc1c2ccccc2cc2ccccc12)C(=O)O; X1 = O=C(C1CCC(CN[*:1])CC1)[*:2]; ξK = NCCCCC(N)C(=O)O

Tested on: NRG-mice bearing LNCaP tumors
Experiment: Biodistribution (and PET/SPECT imaging) in NRG-mice bearing LNCaP tumors
Assay type: in vivo
Conditions: for Biodistribution: Adrenal gland / Biodistribution: Blood / Biodistribution: Bone / Biodistribution: Brain / Biodistribution: Fat / Biodistribution: Heart / Biodistribution: Intestine / Biodistribution: LNCaP tumor / Biodistribution: Lacrimal gland / Biodistribution: Liver / Biodistribution: Lungs / Biodistribution: Muscle / Biodistribution: Pancreas / Biodistribution: Salivary gland / Biodistribution: Seminal gland / Biodistribution: Spleen / Biodistribution: Stomach / Biodistribution: Testes / Biodistribution: Thyroid / Biodistribution: Urine / Biodistribution: kidney: Avg
Protocol: LNCaP cell line was obtained from ATCC (LNCaP clone FGC, CRL-1740). It was established from a metastatic site of left supraclavicular lymph node of human prostatic adenocarcinoma. Cells were cultured in PRMI 1640 medium supplemented with 10% FBS, penicillin (100 U/mL) and streptomycin (100 μg/mL) at 37° C. in a humidified incubator containing 5% CO2. Cells grown to 80-90% confluence were then washed with sterile phosphate-buffered saline (1×PBS pH 7.4) and trypsinization. The collected cells number was counted with a Hausser Scientific (Horsham, PA) Hemacytometer. Approximately 10 million LNCaP cells were inoculated into the left dorsal flank of immunocomprised NRG mice. The tumours were allowed to grow for 4-6 weeks and used for imaging and biodistribution studies when a volume of 200-600 mm^3 was reached.
PET imaging experiments were conducted using Siemens Inveon micro PET/CT scanner. SPECT imaging experiments were conducted using an MILabs micro SPECT/CT scanner. Each tumor bearing mouse was injected 4-6 MBq of ^68Ga or 18.5 MBq of ^177Lu labeled tracer through the tail vein under anesthesia (2% isoflurane in oxygen). The mice were allowed to recover and roam freely in their cage. At pre-defined time point, the mice were sedated again with 2% isoflurane in oxygen inhalation and positioned in the scanner. A 10-min CT scan was conducted first for localization and attenuation correction after segmentation for reconstructing the PET or SPECT images. Then, a 10-min static PET imaging or a one hour (30 min×2 frames) of static SPECT scan was performed to determined uptake in tumor and other organs. The mice were kept warm by a heating pad during acquisition.
For biodistribution studies, the mice were injected with the radiotracer as described above. The mice were anesthetized with 2% isoflurane inhalation, and euthanized by CO2 inhalation. Blood was withdrawn immediately from the heart, and the organs/tissues of interest were collected. The collected organs/tissues were weighed and counted using a Perkin Elmer (Waltham, MA) Wizard2 2480 gamma counter. The uptake in each organ/tissue was normalized to the injected dose (radioactivity) using a standard curve, and expressed as the percentage of the injected dose per gram of tissue (% ID/g).

- LNCaP tumor uptake compared to 177Lu-HTK03170: substantially improved
- Biodistribution: Adrenal gland (3 h p.i.): 3.41 % ID/g
- Biodistribution: Blood (3 h p.i.): 14.17 % ID/g
- Biodistribution: Bone (3 h p.i.): 0.78 % ID/g
- Biodistribution: Brain (3 h p.i.): 0.24 % ID/g
- Biodistribution: Fat (3 h p.i.): 1.85 % ID/g
- Biodistribution: Heart (3 h p.i.): 3.24 % ID/g
- Biodistribution: Intestine (3 h p.i.): 1.03 % ID/g
- Biodistribution: LNCaP tumor (3 h p.i.): 39.27 % ID/g
- Biodistribution: Lacrimal gland (3 h p.i.): 0.20 % ID/g
- Biodistribution: Liver (3 h p.i.): 2.31 % ID/g
- Biodistribution: Lungs (3 h p.i.): 6.68 % ID/g
- Biodistribution: Muscle (3 h p.i.): 1.18 % ID/g
- Biodistribution: Pancreas (3 h p.i.): 2.27 % ID/g
- Biodistribution: Salivary gland (3 h p.i.): 2.43 % ID/g
- Biodistribution: Seminal gland (3 h p.i.): 0.93 % ID/g
- Biodistribution: Spleen (3 h p.i.): 2.25 % ID/g
- Biodistribution: Stomach (3 h p.i.): 1.55 % ID/g
- Biodistribution: Testes (3 h p.i.): 6.56 % ID/g
- Biodistribution: Thyroid (3 h p.i.): 2.87 % ID/g
- Biodistribution: Urine (3 h p.i.): 97.91 % ID/g
- Biodistribution: kidney (3 h p.i.): 17.31 % ID/g
- Biodistribution: Adrenal gland (24 h p.i.): 0.61 % ID/g
- Biodistribution: Blood (24 h p.i.): 0.61 % ID/g
- Biodistribution: Bone (24 h p.i.): 0.07 % ID/g
- Biodistribution: Brain (24 h p.i.): 0.03 % ID/g
- Biodistribution: Fat (24 h p.i.): 0.20 % ID/g
- Biodistribution: Heart (24 h p.i.): 0.24 % ID/g
- Biodistribution: Intestine (24 h p.i.): 0.13 % ID/g
- Biodistribution: LNCaP tumor (24 h p.i.): 89.90 % ID/g
- Biodistribution: Lacrimal gland (24 h p.i.): 0.04 % ID/g
- Biodistribution: Liver (24 h p.i.): 0.31 % ID/g
- Biodistribution: Lungs (24 h p.i.): 0.55 % ID/g
- Biodistribution: Muscle (24 h p.i.): 0.08 % ID/g
- Biodistribution: Pancreas (24 h p.i.): 0.11 % ID/g
- Biodistribution: Salivary gland (24 h p.i.): 0.35 % ID/g
- Biodistribution: Seminal gland (24 h p.i.): 0.07 % ID/g
- Biodistribution: Spleen (24 h p.i.): 0.35 % ID/g
- Biodistribution: Stomach (24 h p.i.): 0.15 % ID/g
- Biodistribution: Testes (24 h p.i.): 0.48 % ID/g
- Biodistribution: Thyroid (24 h p.i.): 0.40 % ID/g
- Biodistribution: Urine (24 h p.i.): 9.85 % ID/g
- Biodistribution: kidney (24 h p.i.): 5.58 % ID/g
- Biodistribution: Adrenal gland (72 h p.i.): 0.34 % ID/g
- Biodistribution: Blood (72 h p.i.): 0.07 % ID/g
- Biodistribution: Bone (72 h p.i.): 0.02 % ID/g
- Biodistribution: Brain (72 h p.i.): 0.01 % ID/g
- Biodistribution: Fat (72 h p.i.): 0.15 % ID/g
- Biodistribution: Heart (72 h p.i.): 0.10 % ID/g
- Biodistribution: Intestine (72 h p.i.): 0.04 % ID/g
- Biodistribution: LNCaP tumor (72 h p.i.): 70.84 % ID/g
- Biodistribution: Lacrimal gland (72 h p.i.): 0.01 % ID/g
- Biodistribution: Liver (72 h p.i.): 0.23 % ID/g
- Biodistribution: Lungs (72 h p.i.): 0.16 % ID/g
- Biodistribution: Muscle (72 h p.i.): 0.02 % ID/g
- Biodistribution: Pancreas (72 h p.i.): 0.04 % ID/g
- Biodistribution: Salivary gland (72 h p.i.): 0.14 % ID/g
- Biodistribution: Seminal gland (72 h p.i.): 0.03 % ID/g
- Biodistribution: Spleen (72 h p.i.): 0.38 % ID/g
- Biodistribution: Stomach (72 h p.i.): 0.04 % ID/g
- Biodistribution: Testes (72 h p.i.): 0.29 % ID/g
- Biodistribution: Thyroid (72 h p.i.): 0.16 % ID/g
- Biodistribution: Urine (72 h p.i.): 2.63 % ID/g
- Biodistribution: kidney (72 h p.i.): 3.21 % ID/g
- Biodistribution: Adrenal gland (144 h p.i.): 0.23 % ID/g
- Biodistribution: Blood (144 h p.i.): 0.01 % ID/g
- Biodistribution: Bone (144 h p.i.): 0.02 % ID/g
- Biodistribution: Brain (144 h p.i.): 0.01 % ID/g
- Biodistribution: Fat (144 h p.i.): 0.22 % ID/g
- Biodistribution: Heart (144 h p.i.): 0.04 % ID/g
- Biodistribution: Intestine (144 h p.i.): 0.01 % ID/g
- Biodistribution: LNCaP tumor (144 h p.i.): 116.43 % ID/g
- Biodistribution: Lacrimal gland (144 h p.i.): 0.00 % ID/g
- Biodistribution: Liver (144 h p.i.): 0.09 % ID/g
- Biodistribution: Lungs (144 h p.i.): 0.08 % ID/g
- Biodistribution: Muscle (144 h p.i.): 0.01 % ID/g
- Biodistribution: Pancreas (144 h p.i.): 0.01 % ID/g
- Biodistribution: Salivary gland (144 h p.i.): 0.05 % ID/g
- Biodistribution: Seminal gland (144 h p.i.): 0.01 % ID/g
- Biodistribution: Spleen (144 h p.i.): 0.37 % ID/g
- Biodistribution: Stomach (144 h p.i.): 0.02 % ID/g
- Biodistribution: Testes (144 h p.i.): 0.15 % ID/g
- Biodistribution: Thyroid (144 h p.i.): 0.11 % ID/g
- Biodistribution: Urine (144 h p.i.): 1.88 % ID/g
- Biodistribution: kidney (144 h p.i.): 1.98 % ID/g
- Biodistribution: Adrenal gland (240 h p.i.): 0.02 % ID/g
- Biodistribution: Blood (240 h p.i.): 0.00 % ID/g
- Biodistribution: Bone (240 h p.i.): 0.01 % ID/g
- Biodistribution: Brain (240 h p.i.): 0.00 % ID/g
- Biodistribution: Fat (240 h p.i.): 0.06 % ID/g
- Biodistribution: Heart (240 h p.i.): 0.01 % ID/g
- Biodistribution: Intestine (240 h p.i.): 0.01 % ID/g
- Biodistribution: LNCaP tumor (240 h p.i.): 95.45 % ID/g
- Biodistribution: Lacrimal gland (240 h p.i.): 0.00 % ID/g
- Biodistribution: Liver (240 h p.i.): 0.06 % ID/g
- Biodistribution: Lungs (240 h p.i.): 0.14 % ID/g
- Biodistribution: Muscle (240 h p.i.): 0.01 % ID/g
- Biodistribution: Pancreas (240 h p.i.): 0.00 % ID/g
- Biodistribution: Salivary gland (240 h p.i.): 0.01 % ID/g
- Biodistribution: Seminal gland (240 h p.i.): 0.00 % ID/g
- Biodistribution: Spleen (240 h p.i.): 0.50 % ID/g
- Biodistribution: Stomach (240 h p.i.): 0.01 % ID/g
- Biodistribution: Testes (240 h p.i.): 0.08 % ID/g
- Biodistribution: Thyroid (240 h p.i.): 0.03 % ID/g
- Biodistribution: Urine (240 h p.i.): 0.43 % ID/g
- Biodistribution: kidney (240 h p.i.): 0.46 % ID/g
Compound: O=C([O-])CN1CCN(CC(=O)[O-])CCN(CC(=O)NCCCCC(NC(=O)CNC(=O)CCCc2ccc([N+](=O)[O-])cc2)C(=O)NCC(=O)NCC2CCC(C(=O)NC(Cc3c4ccccc4cc4ccccc34)C(=O)NCCCCC(NC(=O)NC(CCCC(=O)O)C(=O)O)C(=O)O)CC2)CCN(CC(=O)[O-])CC1.[177Lu+3] (stereo not shown) [^177Lu-CCZ02017] ({Butanoyl(4-(4-NO2Ph))}-G[ξK](DOTA)G[X1][ξAla(9-anthryl)]-{ξLys(Nα-CO-ξAad)})
